In US20260108546A1 (ELI LILLY AND COMPANY, priority 2024, published 2026):
One block for each compound: values may come before it.

Biological target: T1, hGIP-R (Homo sapiens, UniProt P48546)
T1 construct: expressed in transfected cells; host or cells: HEK-293 clonal cell lines
T1 sequence (P48546 22-466): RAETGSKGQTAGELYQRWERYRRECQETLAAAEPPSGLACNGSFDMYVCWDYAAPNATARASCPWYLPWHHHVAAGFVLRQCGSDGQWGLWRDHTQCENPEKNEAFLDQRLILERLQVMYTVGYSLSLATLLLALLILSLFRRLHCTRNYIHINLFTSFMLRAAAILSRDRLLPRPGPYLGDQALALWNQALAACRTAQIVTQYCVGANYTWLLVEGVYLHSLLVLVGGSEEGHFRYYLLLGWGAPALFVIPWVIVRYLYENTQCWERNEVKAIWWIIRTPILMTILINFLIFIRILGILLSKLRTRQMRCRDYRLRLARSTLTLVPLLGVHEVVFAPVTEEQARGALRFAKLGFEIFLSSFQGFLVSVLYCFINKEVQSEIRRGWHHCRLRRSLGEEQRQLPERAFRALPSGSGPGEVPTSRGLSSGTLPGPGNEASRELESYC
Test: Functional hGIP-R Assay (cAMP formation, HTRF)
Assay type: cell-based
Details: for Emax: cAMP efficacy, percent of maximal response to GIP(1-42)OH, 37° C., 0.1% bovine casein, arithmetic mean ± SEM; for EC50: cAMP potency, HEK-293 cells expressing hGIP-R, incubated at 37° C. in the presence of 0.1% bovine casein, geometric mean, read-out: Human GIP-R EC50, nM (SEM, n)
Outline: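 Relative EC50 and Emax came from four-parameter logistic fits of cAMP as a percent of the human GIP (1-42) OH maximal response. The cAMP was measured by competitive HTRF after 30 min, 37 °C compound exposure of hGIP-R HEK-293 clones in IBMX (250 μM)-containing medium.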

Structure (SMILES): Cc1ncc(-c2cc(C(F)(F)F)nn2CC(C)(C)NC(=O)[C@@H](Cc2cnn(C(F)F)c2)NC(=O)[C@H]2C[C@@H]2c2ccc(-c3cnc4nn(C)cc4c3)nc2C(F)(F)F)cn1 [Example 147, (1S,2S)-N—((R)-3-(1-(Difluoromethyl)-1H-pyrazol-4-yl)-1-((2-methyl-1-(5-(2-methylpyrimidin-5-yl)-3-(trifluoromethyl)-1H-pyrazol-1-yl)propan-2-yl)amino)-1-oxopropan-2-yl)-2-(6-(2-methyl-2H-pyrazolo[3,4-b]pyridin-5-yl)-2-(trifluoromethyl)pyridin-3-yl)cyclopropane-1-carboxamide]
Emax: 86.1 ± 9%
EC50: 17.2 nM

Structure (SMILES): CN(C(=O)[C@H]1C[C@@H]1c1ccc(-c2cnc3nn(C(F)F)cc3c2)cc1)[C@H](Cc1cnn(C)c1)C(=O)NC(C)(C)Cn1nc(C(F)(F)F)cc1-c1ccc(=O)n(C)c1 [Example 88, (1S,2S)-2-(4-(2-(Difluoromethyl)-2H-pyrazolo[3,4-b]pyridin-5-yl)phenyl)-N-methyl-N-((R)-1-((2-methyl-1-(5-(1-methyl-6-oxo-1,6-dihydropyridin-3-yl)-3-(trifluoromethyl)-1H-pyrazol-1-yl)propan-2-yl)amino)-3-(1-methyl-1H-pyrazol-4-yl)-1-oxopropan-2-yl)cyclopropane-1-carboxamide]
Emax: 116%
EC50: 89 nM

Structure (SMILES): Cc1cc(C2CC2C(=O)N[C@H](Cc2cnn(C)c2)C(=O)NC(C)(C)Cc2ccc(F)cc2)ccc1NC(=O)Nc1ccc(F)cc1 (single isomer, unassigned; isomer 2) [Example 50]
Emax: 85.5 ± 2.37%
EC50: 82.3 nM

Structure (SMILES): Cc1cn2cc(-c3ccc(C4CC45CCN([C@H](Cc4cnn(C(F)F)c4)C(=O)NC(C)(C)Cn4nc(C(F)(F)F)cc4-c4ccc(=O)n(C)c4)C5=O)c(C(F)(F)F)c3)cnc2n1 (single isomer, unassigned; isomer 1) [Example 153]
Emax: 77 ± 2.05%
EC50: 0.478 nM

Structure (SMILES): Cn1cc2cc(-c3ccc([C@H]4C[C@@]45CCN([C@H](Cc4cnn(C(F)F)c4)C(=O)NC(C)(C)Cn4nc(C(F)(F)F)cc4-c4ccc(=O)n(C)c4)C5=O)c(F)c3)cnc2n1 [Example 117, (2R)-3-(1-(Difluoromethyl)-1H-pyrazol-4-yl)-2-((1S,3R)-1-(2-fluoro-4-(2-methyl-2H-pyrazolo[3,4-b]pyridin-5-yl)phenyl)-4-oxo-5-azaspiro[2.4]heptan-5-yl)-N-(2-methyl-1-(5-(1-methyl-6-oxo-1,6-dihydropyridin-3-yl)-3-(trifluoromethyl)-1H-pyrazol-1-yl)propan-2-yl)propanamide]
Emax: 56 ± 3.91%
EC50: 4.39 nM

Structure (SMILES): Cn1cc2cc(-c3ccc([C@H]4C[C@@]45CCN([C@H](Cc4cnn(C(F)F)c4)C(=O)NC(C)(C)Cn4nc(C(F)(F)F)cc4-c4cc(F)c(CO)cc4F)C5=O)cc3)cnc2n1 [Example 124, (R)-N-(1-(5-(2,5-Difluoro-4-(hydroxymethyl)phenyl)-3-(trifluoromethyl)-1H-pyrazol-1-yl)-2-methylpropan-2-yl)-3-(1-(difluoromethyl)-1H-pyrazol-4-yl)-2-((1R,3R)-1-(4-(2-methyl-2H-pyrazolo[3,4-b]pyridin-5-yl)phenyl)-4-oxo-5-azaspiro[2.4]heptan-5-yl)propanamide]
Emax: 56.9 ± 11.2%
EC50: 55.6 nM

Structure (SMILES): CC(C)(Cn1nc(C(F)(F)F)cc1C1CC1)NC(=O)[C@@H](Cc1cnc2ncccn12)NC(=O)[C@H]1C[C@@H]1c1ccc(NC(=O)C2CC(F)(F)C2)cc1 [Example 40, N-(4-((1S,2S)-2-(((R)-1-((1-(5-cyclopropyl-3-(trifluoromethyl)-1H-pyrazol-1-yl)-2-methylpropan-2-yl)amino)-3-(imidazo[1,2-a]pyrimidin-3-yl)-1-oxopropan-2-yl)carbamoyl)cyclopropyl)phenyl)-3,3-difluorocyclobutane-1-carboxamide]
Emax: 60.7 ± 0.306%
EC50: 3.55 nM

Structure (SMILES): Cn1cc(-c2cc(C(F)(F)F)nn2CC(C)(C)NC(=O)[C@@H](Cc2cnn(C(F)F)c2)N2CC[C@@]3(C[C@@H]3c3ccc(-c4cnc5nc(C(C)(C)O)ccc5c4)cc3)C2=O)ccc1=O (single isomer, unassigned; isomer 1) [Example 104]
Emax: 89 ± 1.12%
EC50: 54.6 nM

The next lines start with the values.

Emax: 106 ± 5.38%
EC50: 104 nM
Structure (SMILES): Cn1cc2cc(-c3ccc([C@H]4C[C@@H]4C(=O)N[C@H](Cc4cnn(C(F)F)c4)C(=O)NC(C)(C)Cn4nc(C(F)(F)F)cc4Br)cc3)cnc2n1 [Example 12, (1S,2S)-N-((R)-1-((1-(5-bromo-3-(trifluoromethyl)-1H-pyrazol-1-yl)-2-methylpropan-2-yl)amino)-3-(1-(difluoromethyl)-1H-pyrazol-4-yl)-1-oxopropan-2-yl)-2-(4-(2-methyl-2H-pyrazolo[3,4-b]pyridin-5-yl)phenyl) cyclopropane-1-carboxamide]

Emax: 112 ± 0.275%
EC50: 49.7 nM
Structure (SMILES): Cn1cc(C[C@@H](NC(=O)[C@H]2C[C@@H]2c2ccc(-c3cnc4nn(C)cc4c3)cc2)C(=O)NC(C)(C)Cn2nc(C(F)(F)F)cc2-n2nccn2)cn1 (single isomer, unassigned) [Example 13]

Emax: 120%
EC50: 45.5 nM
Structure (SMILES): COCc1cn2cc(-c3ccc([C@H]4C[C@@H]4C(=O)N(C)[C@H](Cc4cnn(C)c4)C(=O)NC(C)(C)Cn4nc(C(F)(F)F)cc4-c4ccc(=O)n(C)c4)cc3)cnc2n1 [Example 90, (1S,2S)-2-(4-(2-(Methoxymethyl)imidazo[1,2-a]pyrimidin-6-yl)phenyl)-N-methyl-N-((R)-1-((2-methyl-1-(5-(1-methyl-6-oxo-1,6-dihydropyridin-3-yl)-3-(trifluoromethyl)-1H-pyrazol-1-yl)propan-2-yl)amino)-3-(1-methyl-1H-pyrazol-4-yl)-1-oxopropan-2-yl)cyclopropane-1-carboxamide]

Emax: 117 ± 5.22%
EC50: 55.2 nM
Structure (SMILES): Cn1cc(C[C@@H](NC(=O)C2CC2(C)c2ccc(-c3cnc4nn(C)cc4c3)cc2)C(=O)NC(C)(C)Cn2cc(C(F)(F)F)cn2)cn1 (single isomer, unassigned; isomer 4) [Example 11]

Emax: 106 ± 2.58%
EC50: 36.4 nM
Structure (SMILES): CCc1cn2cc(-c3ccc([C@H]4C[C@@H]4C(=O)N[C@H](Cc4cnc5ncccn45)C(=O)NC(C)(C)Cn4cc(C(F)(F)F)cn4)cc3)cnc2n1 [Example 82, (1S,2S)-2-(4-(2-Ethylimidazo[1,2-a]pyrimidin-6-yl)phenyl)-N-((R)-3-(imidazo[1,2-a]pyrimidin-3-yl)-1-((2-methyl-1-(4-(trifluoromethyl)-1H-pyrazol-1-yl)propan-2-yl)amino)-1-oxopropan-2-yl)cyclopropane-1-carboxamide]

Emax: 95.4 ± 7.12%
EC50: 44.1 nM
Structure (SMILES): Cc1cn2cc(-c3ccc([C@H]4C[C@@H]4C(=O)N[C@H](Cc4cnc5ncccn45)C(=O)NC(C)(C)Cn4cc(C(F)(F)F)cn4)cc3)cnc2n1 [Example 83, (1S,2S)-N-((R)-3-(Imidazo[1,2-a]pyrimidin-3-yl)-1-((2-methyl-1-(4-(trifluoromethyl)-1H-pyrazol-1-yl)propan-2-yl)amino)-1-oxopropan-2-yl)-2-(4-(2-methylimidazo[1,2-a]pyrimidin-6-yl)phenyl)cyclopropane-1-carboxamide]
